Source: patent publication US6808873B2, “Screening assays using intramitochondrial calcium” (MitoKor, Inc., priority 2000, dated 2004)
Each block holds one compound with its values, some of them ahead of it.

Columns and labels:
Ca^2+ uniporter [1] = target: T1, Ca^2+ uniporter (Homo sapiens, UniProt Q8NE86); experiment: Ca^2+ uniporter assay, digitonin-permeabilized suspended HepG2 cells, Calcium-Green-5N on FLIPR, ICMA added between two Ca^2+ pulses; type: cell-based; conditions: 5 micrograms/milliliter oligomycin, 2 micromolar rotenone, 1 micromolar FCCP; for mitochondrial uptake of the second Ca^2+ pulse: second Ca^2+ pulse at about t=6 min, 1 micromolar RU360
T1 construct: The effects of several intracellular Ca^2+ modulating agents (ICMAs) on permeabilized HepG2 cells were examined; endogenous in cells; host or cells: HepG2 (ATCC HB-8065), digitonin-permeabilized, in suspension
T1 sequence (Q8NE86 51-351): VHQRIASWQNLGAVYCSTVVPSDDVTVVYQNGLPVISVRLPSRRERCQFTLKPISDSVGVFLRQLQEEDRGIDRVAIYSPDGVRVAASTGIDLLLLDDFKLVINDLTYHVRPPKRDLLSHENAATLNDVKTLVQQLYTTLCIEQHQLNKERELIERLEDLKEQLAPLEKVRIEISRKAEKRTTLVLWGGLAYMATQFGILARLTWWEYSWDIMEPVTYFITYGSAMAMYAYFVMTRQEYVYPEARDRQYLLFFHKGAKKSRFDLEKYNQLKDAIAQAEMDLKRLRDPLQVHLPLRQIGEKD
T1 sequence (Q9H4I9 48-107 partner limits assumed): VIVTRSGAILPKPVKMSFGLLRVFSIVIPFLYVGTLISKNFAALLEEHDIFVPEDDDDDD
Experimental: A master mix solution (MM Solution) was prepared by the addition of glutamate and malate to final concentrations of 5 millimolar each, MgCl2 to a final concentration of 1 millimolar, EGTA to a final concentrations of 0 to 8 micromolar, and Calcium-Green-5N to a final concentration of 0.1 to 1.0 micromolar, to a basic KCl-based respiratory media (“BReM”) that is described in Table 3. […] The hexapotassiun salt Calcium-Green-5N (Molecular Probes, Eugene, Oreg.) in the MM Solution is a fluorescent dye that has low binding affinity to Ca^2+.
Thapsigargin (Calbiochem, San Diego, Calif.), a Ca^2+ uptake inhibitor of the endoplasmic reticulum (ER), was added to the MM Solution to a final concentration of 1 micromolar to yield a solution designated “MM-T” (i.e., Master Mix with Thapsigargin).
The cell membrane permeabilizing agent digitonin (Sigma, St. Louis, Mo.) was added to MM-T to a final concentration of from about 0.007% to about 0.03% to yield a solution referred to as “MM-TD” (i.e., Master Mix with Thapsigargin and digitonin. CaCl2 was added to MM-T to provide a solution with a determined final concentration of Ca^2+ for the determination of intracellular Ca^2+ flux.
The effects of several intracellular Ca^2+ modulating agents (ICMAs) on permeabilized HepG2 cells were examined as follows. The mitochondrial respiratory inhibitors oligomycin (Calbiochem, San Diego, Calif.) and rotenone (Calbiochem) were added to MM-T to final concentrations of 50 micrograms/milliliter and 20 micromolar, respectively. The uncoupler FCCP was similarly added to MM-T to a 10× concentration (10 micromolar) to yield a stock solution of FCCP, MM-TF (i.e., Master Mix with Thapsigargin and FCCP). The ICMA Ru360, which blocks Ca^2+ uptake into the mitochondria by the calcium uniporter, was added to MM-T to a concentration of 100 micromolar to yield MM-T360 (i.e., Master Mix with Thapsigragin and Ru360). CaCl2 was added to MM-T to yield a 10× solution of CaCl2 (120 micromolar) in MM-T.
HepG2 cells were cultured in Eagle's minimal essential medium (MEM) with non-essential amino acids, sodium pyruvate and Earle's balanced salt solution (BSS), 90%; fetal bovine serum (FBS), 10%. Cells were centrifuged (500×g) and the growth media was aspirated from the pellet. The HepG2 cells were resuspended in MM-TD at a concentration of 1×10^7 cells/milliliter, and 100 microliters of the resuspended permeabilized cells were dispensed into wells of a 96-well Costar 3603 microplate. The plate was placed into a FLIPR™ prewarmed to 37° C. MM-T, 120 micromolar Ca^2+, was dispensed into the cell-containing wells at a volume of 11.1 microliters, yielding a final assay concentration of 12 micromolar Ca^2+. The addition of Ca^2+ at this stage of the assay is referred to as the first calcium pulse and the time at which Ca^2+ is added is designated t=0.
After about three minutes (i.e., at about t=3 min.), 12.3 microliters of one of the ICMA solutions were dispensed into wells containing permeabilized cells to yield final assay concentrations of 5 micrograms/milliliter oligomycin, 2 micromolar rotenone, 1 micromolar FCCP, 1 micromolar RU360, and MM-T (no ICMA).
Cells were exposed to a second calcium pulse by the addition of 13.7 microliters of MM-T, 120 micromolar Ca^2+, to the cells after an additional 3 minutes (i.e., at about t=6 min.).

Ca^2+ uniporter [2] = target: T1, Ca^2+ uniporter; experiment: High-throughput uniporter assay of different compounds, permeabilized HepG2 cells with and without thapsigargin, FLIPR II; type: cell-based
[3] = system: mitochondria permeability transition (MPT); experiment: High-throughput MPT modulation assay, permeabilized HepG2 cells with and without thapsigargin, FLIPR 384; type: cell-based, human; conditions: compounds 1 micromolar
Experimental: HepG2 cells (hepatocellular carcinoma, ATCC HB-8065), in suspension, were used to determine the effect of these compounds on mitochondria Ca^2+ sequestration by monitoring extramitochondrial Ca^2+ concentrations in the presence or absence of the Ca^2+ uptake inhibitor of the endoplasmic reticulum, thapsigargin (Calbiochem, San Diego, Calif.). On the day of the assay solutions of the respiratory media containing digitonin with thapsigarin (MM-TD) and without thapsigarin (MM-D) were prepared as previously described. Calcium chloride was added to each to a final concentration of 6 micromolar Ca^2+, to yield MM-TD, 6 uM Ca, and MM-D, 6 uM Ca. Ten times (10×) stock solutions were prepared for the assay by the addition of each of the compounds to final concentrations of 10 micromolar in MM. Ten times (10×) solutions of CaCl2 was prepared in MM or MM-T to concentrations of 200 micromolar, for the second addition.
The HepG2 cells were trypsinized from near-confluent flasks in growth media (Eagle's MEM with non-essential amino acids, sodium pyruvate and Earle's BSS, 90%; FBS 10%). Cells were centrifuged, media was aspirated, and the cells were resuspended to 1×10^7 cells per milliliter in MM-TD, 6 uM Ca and MM-D, 6 uM Ca, whereby Ca^2+ and the indicator dye enter the cells and Ca^2+ becomes sequestered in mitochondria. One hundred (100) microliters of the cell suspension was delivered to each well of a microtiter plate. The plate was placed in the FLIPR 384 warmed to 37° C. An 11.1 microliter volume of the 10× stock solutions with the test compounds were dispensed into designated wells such that the assay concentration are 1 micromolar. After a three minute interval, a Ca^2+ pulse of 20 micromolar was delivered by adding 12.3 microliters of the 10× CaCl2 solutions containing 200 micromolar Ca^2+.

[4] = system: mitochondria permeability transition (MPT); experiment: MPT modulation assay, digitonin-permeabilized MixCon cells, Ca-Green-5N, cuvette spectrofluorimeter; type: cell-based
Experimental: An assay was performed in order to observe the transition induction effect on MPT by the MPT effector, diamide (a thiol oxidizing agent and pro-oxidant). The assay was performed in a digitonin-permeabilized cell line of mixed cybrids, MixCon in the presence of Ca^2+ and Ca-Green-5N and monitored in an LS50B Perkin Elmer Spectrofluorimeter, but is adaptable to the FLIPR system. Initially, ethacrynic acid was added to the MixCon cells in Dulbecco's modified Eagle's medium and 10% FBS, to a final concentration of 100 micromolar and preincubated for 5 minutes to remove the ability of cells to deal with oxidative stress making cells susceptible to the pro-oxidant. The cells were then centrifuged, growth media was aspirated, and cells resuspended, at 1.1×10^7 cells/milliliter, in 2 milliliters of respiratory media containing digitonin (MM-D) whereupon the digitonin (dig) permeabilizes the cells. The suspension was then transferred to a spectrofluorimetric cuvette. The cuvette was placed in the fluorimeter and 0.3 microliters of a 254 millimolar CaCl2 stock was added to the cuvette (final CaCl2 concentration of 40 micromolar). After approximately three minutes diamide was added to the cuvette to a final concentration of 500 micromolar].

Ca^2+ uniporter [5] = system: Ca^2+ uniporter
[6] = system: mitochondria permeability transition (MPT); experiment: MPT modulation assay, digitonin-permeabilized 293T cells, cuvette spectrofluorimeter; type: cell-based, human
Experimental: The transition induction effect on MPT by the MPT effector, diamide (a thiol oxidizing agent and pro-oxidant) were performed with a second cell line, 293T. The 293T cells were suspended in 2 milliliters of growth media, DMEN and 10% FBS, with 100 micromolar of ethacrynic acid (1×10^7 cells/ml) and preincubated for 14 minutes to remove ability of cells to deal with oxidative stress making them susceptible to the pro-oxidant. The cells were centrifuged, media aspirated, resuspended in 2 milliliters of respiratory media containing digitonin (MM-D), and transferred into a cuvette. The digitonin (dig) in MM-TD permeabilizes the cells. The cuvette was placed in a LS50B Perkin Elmer Spectrofluorimeter and 40 micromolar CaCl2 in H2O was added into the suspension. After approximately three minutes 500 micromolar diamide was dispensed into the cuvette.

uniporter activity profile after the 20 micromolar Ca^2+ pulse (Ca^2+ uniporter [2]; Ru360 10 micromolar): no uptake of Ca^2+ by the uniporter
Compound: Ru360
mitochondrial uptake of the second Ca^2+ pulse (Ca^2+ uniporter [1]): prevented the uptake of Ca^2+ by the Ca Uniporter

uniporter activity profile after the 20 micromolar Ca^2+ pulse (Ca^2+ uniporter [2]; test compounds 1 micromolar): uniporter non-inhibitory profile
Compound: O=C1CN(/N=C/c2ccc(-c3ccc([N+](=O)[O-])cc3)o2)C(O)=N1 [dantrolene]

Compound: N=C(N)NC(=O)c1nc(Cl)c(N)nc1N [amiloride]
uniporter activity profile after the 20 micromolar Ca^2+ pulse (Ca^2+ uniporter [2]; test compounds 1 micromolar): do not possess uniporter inhibitory activity

Compound: CCC(C)N(C)C(=O)c1cc2ccccc2c(-c2ccccc2Cl)n1 (stereo not shown) [PK-11195]
uniporter activity profile after the 20 micromolar Ca^2+ pulse (Ca^2+ uniporter [2]; test compounds 1 micromolar): uniporter non-inhibitory profile

Compound: CO[C@H](C/C=C\C=C\CC/C=C/C[C@H](C)/C=C/C(=C\C(=O)O)CC(=O)O)/C(C)=C\C=C(/C)C(=O)O [bongkrekic acid]
assay profile after the 20 micromolar Ca^2+ pulse [3]: normal mitochondria sequestration of Ca^2+

Compound: C=C1[C@@H]2CC[C@H]3[C@]4(C)C[C@H](O[C@@H]5O[C@H](CO)[C@@H](OS(=O)(=O)O)[C@H](OS(=O)(=O)O)[C@H]5OC(=O)CC(C)C)C[C@@H](C(=O)O)[C@H]4CC[C@]3(C2)[C@H]1O [atractyloside]
fluorescence signal over the 3 minutes after compound addition (retention of the accumulated 6 micromolar Ca^2+) (Ca^2+ uniporter [2]; test compounds 1 micromolar): slight indication of Ca^2+ release | assay profile after the 20 micromolar Ca^2+ pulse [3]: initial uptake of Ca^2+ into mitochondria with the slow release of the Ca^2+ into the cytosol

Compound: C[C@H](CCC(=O)O)C[C@H](C)C[C@H](C)C(=O)/C=C(\O)[C@H](C)C[C@H](C)C/C=C/[C@@H](C)[C@@H](O)[C@@H](C)[C@@H](O)C[C@@H]1CC[C@@](C)([C@H]2CC[C@@](C)([C@@H](C)O)O2)O1 [ionomycin]
fluorescence signal over the 3 minutes after compound addition (retention of the accumulated 6 micromolar Ca^2+) (Ca^2+ uniporter [2]; test compounds 1 micromolar): release Ca^2+ from cell stores | uniporter activity profile after the 20 micromolar Ca^2+ pulse (Ca^2+ uniporter [2]; test compounds 1 micromolar): prevent Ca^2+ uptake and retention by the mitochondria

Compound: COc1ccc([C@@H]2Sc3ccccc3N(CCN(C)C)C(=O)[C@@H]2OC(C)=O)cc1 [diltiazem]
uniporter activity profile after the 20 micromolar Ca^2+ pulse (Ca^2+ uniporter [2]; test compounds 1 micromolar): do not possess uniporter inhibitory activity

uniporter activity profile after the 20 micromolar Ca^2+ pulse (Ca^2+ uniporter [2]; test compounds 1 micromolar): uniporter non-inhibitory profile
Compound: COc1ccc(Cl)cc1C(=O)NCCc1ccc(S(=O)(=O)NC(=O)NC2CCCCC2)cc1 [glyburide]

uniporter activity profile after the 20 micromolar Ca^2+ pulse (Ca^2+ uniporter [2]; test compounds 1 micromolar): uniporter non-inhibitory profile
Compound: CC(=O)N[C@@H](CS)C(=O)O [N-acetylcysteine]

Compound: N#CC(C#N)=NNc1cccc(Cl)c1 [CCCP, carbonyl cyanide m-chlorophenyl-hydrazone]
fluorescence signal over the 3 minutes after compound addition (retention of the accumulated 6 micromolar Ca^2+) (Ca^2+ uniporter [2]; test compounds 1 micromolar): release Ca^2+ from mitochondria | uniporter activity profile after the 20 micromolar Ca^2+ pulse (Ca^2+ uniporter [2]; test compounds 1 micromolar): prevent Ca^2+ uptake and retention by the mitochondria

uniporter activity profile after the 20 micromolar Ca^2+ pulse (Ca^2+ uniporter [2]; test compounds 1 micromolar): uniporter non-inhibitory profile
Compound: CN(CC(=O)O)C(=N)N [creatine]

Compound: CN1CCN(CCCN2c3ccccc3Sc3ccc(C(F)(F)F)cc32)CC1 [trifluoroperazine]
uniporter activity profile after the 20 micromolar Ca^2+ pulse (Ca^2+ uniporter [2]; test compounds 1 micromolar): do not possess uniporter inhibitory activity

Compound: N#CC(C#N)=NNc1ccc(OC(F)(F)F)cc1 [FCCP, carbonyl cyanide p-(trifluoromethoxy)phenyl-hydrazone]
further Ca^2+ release on addition of uncoupler after diamide ([4]; FCCP 0.1 micromolar after 500 micromolar diamide, no CsA): no further release of Ca^2+ from the mitochondria | Ca^2+ release on addition of uncoupler in the presence of CsA and diamide ([4]; FCCP after diamide with 10 micromolar CsA): Ca^2+ released from the mitochondria | release of sequestered Ca^2+ from mitochondria after addition of the agent (Ca^2+ uniporter [1]; added about 3 min after first 12 micromolar Ca^2+ pulse, thapsigargin present): caused the release of Ca^2+ from mitochondria into the cytosol | mitochondrial uptake of the second Ca^2+ pulse (Ca^2+ uniporter [1]): could not sequester the added Ca^2+ | effect on CaUP activity at the lowest concentrations (Ca^2+ uniporter [5]; 0.02 or 0.04 uM FCCP, FCCP at 1 min, Ca^2+ pulse at about 4 min, FIG. 10): difficult to distinguish from the results obtained when no FCCP was present | fluorescence upon addition of the agent, before the Ca^2+ pulse (Ca^2+ uniporter [5]; FCCP added at t=1 min to cells loaded with 6 micromolar Ca^2+, FIG. 11): fluorescence rises slightly | effect of the uncoupler on CaUP activity with decreasing concentration (Ca^2+ uniporter [5]; FCCP from 1.0 uM to 0.02 uM, FIG. 10): decreases in a corresponding manner | further Ca^2+ release on addition of uncoupler after diamide ([6]; FCCP 0.1 micromolar after 500 micromolar diamide): no increased level of fluorescence

uniporter activity profile after the 20 micromolar Ca^2+ pulse (Ca^2+ uniporter [2]; test compounds 1 micromolar): uniporter non-inhibitory profile
Compound: CN(C)C(=O)/N=N/C(=O)N(C)C [diamide, azodicarboxylic acid bis[dimethylamide]]
fluorescence upon addition of diamide in the presence of CsA ([4]; diamide 500 micromolar with 10 micromolar CsA): only a slight increase in fluorescence | time until mitochondria released the sequestered Ca^2+ after diamide addition ([4]; diamide 500 micromolar, cells preincubated with 100 micromolar ethacrynic acid, 40 micromolar CaCl2): ≤ 6 min | assay profile after the 20 micromolar Ca^2+ pulse [3]: sequestering of Ca^2+ by mitochondria after the Ca^2+ pulse | time after which the rate of Ca^2+ release substantially increased ([6]; diamide 500 micromolar): about 7.5 minutes | Ca^2+ release from mitochondria after diamide addition ([6]; diamide 500 micromolar, ethacrynic acid 100 micromolar preincubation 14 minutes, 40 micromolar CaCl2): immediately began to slowly release Ca^2+ to the medium
